Assay results taken from a melting point compilation (Tetko et al.; mined from patent text by program, amines drawn as free bases though some values may be those of a salt).
Residues, ends and D or L forms follow the SMILES beside them. *: point of attachment. OiPr = CC(C)O*

Structure (SMILES) | melting point
CCn1cc(C2(c3cccc(-c4cccnc4F)c3)N=C(N)N(C)C2=O)cc1COC (stereo not drawn) | 154 to 157 °C
Cc1c(NC(=O)CC(C)(C)C)c(C)c2c(-c3ccc(C(C)C)cc3)coc2c1C | 229 to 230 °C
CCOc1nn(C(=O)NS(=O)(=O)c2c(C(=O)OC)csc2C)c(=O)n1C | 163 °C
O=C1CCC2=C1C(c1ccc(F)c(F)c1)C1=C(CCS1)N2 (stereo not drawn) | > 260 °C
CC(C)OC(=O)C(C)NC(=O)C(CC(=O)O)NC(=O)C(C)N (stereo not drawn) (H-Ala-Asp-Ala-OiPr; configuration not given here) | 219 to 221 °C
FC(F)(F)c1cccc(Oc2ccnc(-c3ccc(Cl)cc3)n2)c1 | 92 °C
CCOc1cc2c(cc1OCC)CCCC(C(=O)N1CCN(Cc3cc(OC)c(OC)c(OC)c3)CC1)=C2 | 133 to 134 °C
CC1(c2cccc(F)c2C(=O)NCCCl)CCC1 | 108 to 110 °C
CC(=O)OC1CC=C(CCCCCCC(=O)O)C1=O (stereo not drawn) | 62 to 65 °C
CCOC(=O)C1=C(c2ccc(-n3c(C)nc4cnccc43)cc2)NC(=O)NC1c1ccccc1Cl (stereo not drawn) | > 300 °C
CCCC(=O)Nc1c([N+](=O)[O-])c(C(C)(C)C)nn1-c1c(Cl)cc(C(F)(F)F)cc1Cl | 152 to 154 °C
O=C(Cl)N1CCC(Oc2ccc(F)c(Cl)c2)C1 (stereo not drawn) | 63 to 65 °C
N#Cc1ccc(C=C(C(=O)C2CC2)C(=O)C2CC2)cc1 | 100 to 102 °C
Nc1ccc(/C=C/c2ccccc2)nc1 | 159 to 160 °C
N#Cc1ccc(Cc2ccc(O)cc2)cc1 | 163 to 164 °C
CC(=O)N(CC(=O)N1c2ccccc2N(Cc2ccccc2)C(=O)[C@H]2CCC[C@H]21)C(=O)CCc1ccccc1 (relative stereo) | 138 to 140 °C
O=[N+]([O-])c1cccc([N+](=O)[O-])c1NCCO | 77 °C
COc1ccc(S(=O)(=O)N2Cc3cc4c(cc3CC2C(=O)NO)OCO4)cc1 (stereo not drawn) | 166 °C
CCOC(=O)C1=C(C)NC(N)=C(C(=O)OCC)C1c1ccccc1C#N (stereo not drawn) | 208 °C
CN(Cc1cc(C(F)(F)F)cc(C(F)(F)F)c1)C(=O)c1c(-c2ccc(C(=O)O)cc2)c2cccnc2c(=O)n1C | 301 to 302 °C
CC12CC=C3C(CCC4(CCSc5ncccn5)CC(O)CCC34C)C1CCC2O (stereo not drawn) | 156 °C
CCCCc1oc2ccccc2c1C(=O)Nc1ccc2c(Br)c(OC(Cc3ccccc3)C(=O)O)ccc2c1 (stereo not drawn) | 191 to 195 °C
OC1(c2cccs2)C(c2ccccc2Cl)SC2=NCCCCN21 (stereo not drawn) | 120 to 122 °C

Structure (SMILES) | melting point
O=c1[nH]c2cc(F)c(F)cc2c(=O)n1OCc1ccccc1 | > 250 °C
Cc1cc(C(F)(F)F)nn1CC(=O)N1CCC(c2nc(NC(=O)C3CCCc4ccccc43)cs2)CC1 (stereo not drawn) | 179 to 181 °C
CSCC(C)OC(=O)C(=C1NCCCS1)[N+](=O)[O-] (stereo not drawn) | 58 to 60 °C
CCOC(=O)C(C)(C)NC(=O)C(Br)c1ccccc1 (stereo not drawn) | 81 to 83 °C
C#CCOc1cc(OCC=C)ccc1-c1nc2cnncc2[nH]1 | 265 °C
CCCc1nc2c(N)nc3cccnc3c2n1CCCC(=O)N1CCOCC1 | 196 to 197 °C
CSc1nc2cc3c(cc2[nH]1)NC(=O)C3(C)C | 248 to 250 °C
COC(=O)c1ccc(O)c(C2CCCC2)c1 | 114 to 116 °C
O=C(c1cccs1)c1cnn2c(-c3cccc(-c4cc[nH]n4)c3)ccnc12 | 129 °C
CC(C)(C)OC(=O)N1CCCN(CC2=Nc3cccc4c(=O)[nH]nc(c34)N2)CC1 | 219 to 221 °C
Cc1c(NC(=O)c2ccc(OCc3ccc(C(F)(F)F)cc3)cc2)ccc2cc(CN3CCCC3)cnc12 | 196 to 197 °C
CC(=O)NOC(=O)Cc1cnc2ccccc2c1O | 224 to 225 °C
O=C(CCc1cnoc1-c1ccccc1)Nc1ccc2ccccc2n1 | 112 to 113 °C
FC(F)(F)Oc1ccc(C2NCCc3c2[nH]c2ccccc32)cc1 (stereo not drawn) | 68 to 69 °C
O=C(c1ccc([N+](=O)[O-])cc1)N1CCc2cc(S(=O)(=O)N3CC(c4ccccc4)NC3=O)ccc21 (stereo not drawn) | 145 °C
O=S(=O)(Nc1cccc(Cl)c1)c1ccc(Nc2nc(OCC3CCCCC3)c3nc[nH]c3n2)cc1 | 248 to 249 °C
O=C(Nc1nccs1)c1nc(-c2cccc3ccccc23)[nH]c1-c1ccc([N+](=O)[O-])cc1 | 237 to 238 °C
Cc1onc(-c2ccc(C(F)(F)F)cc2)c1CO | 72 to 73 °C
CCCCOC(=O)c1ccc(C(C(N)=O)C(C)c2ccccc2N2CCCCC2)cc1 (stereo not drawn) | 148 °C
C=C(C)C(=O)OCCOC(=O)c1ccc2c(c1)C(=O)N(OS(=O)(=O)c1ccc(C)cc1)C2=O | 113 °C
Cc1c(SCCCSc2nc3ccccc3[nH]2)ccnc1CSc1ccncc1 | 128 to 129 °C
[O-][N+]1=C(c2ccco2)c2cc(Cl)ccc2N(CCCl)C(CCl)C1 (stereo not drawn) | 158 to 159 °C
CCCCCCCC(=O)NCCCCCCOS(C)(=O)=O | 62 to 63 °C

Structure (SMILES) | melting point
Cc1nc(-n2cnn(CCCC(F)(F)F)c2=O)sc1C(=O)NCc1cccnc1 | 184 to 185 °C
CCCCc1nc2c(n1Cc1ccc(-c3ccccc3S(N)(=O)=O)cc1)C(=O)C(F)CS2 (stereo not drawn) | 208 °C
CNc1cccc2c1CCn1cc(-c3ccccc3)nc1C2OC1CCN(C)CC1 (stereo not drawn) | 189 °C
CC[C@H]1COC(=O)N1c1nc(-c2ccc(C#N)cc2)c(F)s1 | 157 to 159 °C
NC(=O)c1nnn(Cc2ccccc2F)c1C(N)=O | 49 to 51 °C
COc1cc(C2CCC(c3cc(OC)c(OC)c(OC)c3)C2N)cc(OC)c1OC (stereo not drawn) | 117 to 119 °C
CN(C)C=Nc1c(Cl)cc(N=Cc2ccc(-c3ccccc3)cc2)cc1Cl | 108 to 110 °C
Clc1cc2nc(CBr)c(CBr)nc2cc1Cl | 154 to 156 °C
CC(C)(C)c1cc(-c2nc(CS(C)(=O)=O)no2)cc(C(C)(C)C)c1O | 153 to 155 °C
Cc1nc(=O)c(O)c(-c2ccc(Cc3ccc(F)cc3)cn2)[nH]1 | > 300 °C
CCOCc1nc2c(N)nc3cc(CCCO)ccc3c2n1CC(C)(C)O | 177 to 178 °C
Cc1c(C)c2c(c(C)c1NC(=O)CC(C)(C)C)[C@@H](c1ccc(C(C)C)cc1)[C@H](C)O2 (relative stereo) | 143 to 144 °C
O=C(Cc1ccccc1[N+](=O)[O-])CN1C(=O)c2ccccc2C1=O | 179 to 182 °C
O=C(CCC#Cc1ccccn1)Nc1ccccc1F | 82 to 84 °C
COC1([N+](=O)[O-])C=CC(C=Cc2ccccc2)=CC1 (stereo not drawn) | 131 to 132 °C
COc1cc(-c2ccccc2F)c(Cl)cc1C(=O)N1Cc2ccc(C(=O)N(CC(O)CO)CC(O)C(O)CO)n2Cc2ccccc21 (stereo not drawn) | 192 to 194 °C
CCOC(=O)c1cnc2onc(C)c2c1O | 150 to 152 °C
COc1cc(C(C)C)c(OCC#N)cc1I | 67.5 to 68.8 °C
O=C(Nc1nccs1)C(CC1CCCC1)c1ccc([N+](=O)[O-])cc1 (stereo not drawn) | 134 to 136 °C
CCOC(=O)Cc1cc(O)c(C)cc1O | 134 °C
CCCCCCOc1ccc(-c2nc(-c3ccc(OCCCCCC)cc3O)nc(-c3ccc(OCCCCCC)cc3O)n2)c(O)c1 | 125 to 127 °C
COC(CN1CCN(c2ccccc2)CC1)c1ccc(C)nc1 (stereo not drawn) | 93 °C
